# Data: PMC8564633, “SMAC/Diablo controls proliferation of cancer cells by regulating phosphatidylethanolamine synthesis” (Molecular Oncology, 2021)
# Non-standard residues stand in square brackets, D forms with d. No end group written: not given here. Dmt = Cc1cc(O)cc(C)c1C[C@H](N)C(=O)O; Orn = NCCC[C@H](N)C(=O)O
# T1: purified PSD (Homo sapiens, UniProt Q9UG56)
# T1 construct: Purified recombinant protein (full length) of human phosphatidylserine decarboxylase (PSD); His tag (N); purchased Acris-OriGene; host or cells: E. coli
# T1 sequence (Q9UG56 53-409): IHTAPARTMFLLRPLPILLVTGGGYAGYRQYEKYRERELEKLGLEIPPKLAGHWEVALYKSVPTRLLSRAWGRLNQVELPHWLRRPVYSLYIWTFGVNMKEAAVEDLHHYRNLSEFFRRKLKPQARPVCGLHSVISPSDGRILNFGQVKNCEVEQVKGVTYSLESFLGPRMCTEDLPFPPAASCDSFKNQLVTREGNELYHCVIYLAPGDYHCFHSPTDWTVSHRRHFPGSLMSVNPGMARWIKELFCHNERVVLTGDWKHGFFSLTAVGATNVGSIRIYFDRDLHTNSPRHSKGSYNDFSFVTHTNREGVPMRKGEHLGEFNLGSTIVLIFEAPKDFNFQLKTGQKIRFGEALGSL
# T2: Purified recombinant protein (full length) of human phosphatidylserine decarboxylase (PSD) (human, UniProt Q9UG56 53-409, fluorescently labelled (in the MST with the peptides 2F3 and 1C11 only))
# T2 construct: phosphatidylserine decarboxylase, human, full length, recombinant; also called PISD; purified PSD; source: bought: Acris‐OriGene, expressed in E. coli, purified; not shown: His tag, N-terminal, kept
# T2 sequence (looked up): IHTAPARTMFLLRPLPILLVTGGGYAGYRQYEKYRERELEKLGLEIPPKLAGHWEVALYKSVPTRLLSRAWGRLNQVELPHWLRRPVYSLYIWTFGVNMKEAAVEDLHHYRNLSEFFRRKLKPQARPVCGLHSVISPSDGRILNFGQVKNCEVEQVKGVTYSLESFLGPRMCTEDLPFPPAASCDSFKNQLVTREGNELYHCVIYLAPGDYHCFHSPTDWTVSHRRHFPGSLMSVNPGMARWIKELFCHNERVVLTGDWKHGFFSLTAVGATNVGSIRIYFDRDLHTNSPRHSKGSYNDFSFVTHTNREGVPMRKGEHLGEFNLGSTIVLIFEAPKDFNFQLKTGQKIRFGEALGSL
# Columns and labels:
# purified SMAC = assay: Glass‐bound peptide array blotted with SMAC with or without PSD; format: binding, human; settings: SMAC preincubated with purified PSD, anti‐SMAC antibodies
# Experimental: Customized 768‐peptide sequences derived from 11 SMAC‐interacting proteins produced by INTAVIS Peptide Services (GmbH & Co. KG, Tübingen, Germany) were arrayed on a glass slide. Peptide arrays were blotted with SMAC, PSD or peptides interacting with PSD using anti‐SMAC or anti‐PSD antibodies. The interaction of purified SMAC or PSD with glass‐bound peptide arrays was assessed by slide washing (three times, 10 min each) with Tris‐buffered saline (150 mM NaCl, 50 mM Tris/HCl, pH 7.4), followed by overnight incubation with blocking buffer (Tris‐buffered saline containing low‐fat dry milk, 2.5%, w/v). The slides were then incubated for 4 h or overnight with purified SMAC (0.8 µM) with and without preincubation with PSD (0.3 µM). Similarly, slides were incubated with PSD (0.15 µM) with or without preincubation with the indicated peptide (20 μM) in blocking buffer at room temperature. After extensive slide washing with Tris‐buffered saline containing 0.05% Tween‐20, SMAC or PSD binding was detected using anti‐SMAC or anti‐PSD antibodies and HRP‐conjugated anti‐rabbit or anti‐mouse IgG as a secondary antibody. The blots were developed using EZ‐ECL (Biological Industries), according to the manufacturer’s instructions.
# Fig. 6 PSD‐ and SMAC‐interacting partners. (A) Schematic presentation of peptide array and detection of their interaction with SMAC. (B) Glass‐bound peptide array consisting of overlapping peptides derived from 15 SMAC‐interacting proteins were incubated overnight with purified SMAC (0.8 µM) and then blotted with anti‐SMAC antibodies (1 : 1000), followed by incubation with HRP‐conjugated anti‐mouse IgG and detection using a chemiluminescence kit. Dark spots represent binding of SMAC to peptides derived from SMAC‐interacting proteins. (C) SMAC (0.3 µM) was incubated with purified PSD (0.4 µM) and blotted as in (B). The peptide spots where PSD prevented interaction with SMAC (Table S1) are circled. (D) Schematic presentation of peptide array and detection of their interaction with PSD. […]
# purified PSD = target: T1, purified PSD; assay: MST, labelled PSD with synthetic peptides; settings: labelled PSD 0.25 µM, peptide 1–10 µM, 30 min, 37 °C, n = 3, read-out: Kd, peptide binding to purified PSD
# different cell lines = settings: ref [35], cited from earlier work
# From the text: To target the peptide to the nucleus (nuCPP), the peptides were fused to the tetrapeptide RrRK (r = D‐arginine), shown to primarily target the nucleus of HeLa cells.
# [1] = Cell death induced by the PE probe; format: cell-based; settings: data not shown
# Ki‐67 = settings: si‐hSMAC‐A‐TTs versus si‐NT‐TTs, IHC
# Experimental: Formalin‐fixed and paraffin‐embedded tumour sections were deparaffinized using xylene and a series of ethanol treatments. Sections were then incubated with 3% H2O2 for 10 min to block endogenous peroxidase activity. Antigen retrieval was done in 0.01 M citrate buffer (pH 6.0) at 95–98 °C for 30 min and washed with PBST (0.1% Tween‐20). In order to reduce nonspecific binding, sections were incubated in 10% NGS for 2 h and then incubated with primary antibodies (Table S1) overnight at 4 °C. For IHC, after washing with PBST, sections were incubated for 2 h at room temperature with HRP‐conjugated secondary antibodies, washed well with PBST and incubated with the substrate DAB Sections were washed with water, counterstained with haematoxylin and mounted with Vectashield mounting medium (Vector Laboratories). Sections were observed under a microscope (Leica DM2500, Wetzlar, Germany), and images were collected at 20× magnification with the same light intensity and exposure time. For IF, following overnight incubation with the primary antibodies, PBST‐washed sections were incubated with fluorescent‐tagged secondary antibodies for 2 h at room temperature in the dark. […]
# (D‐F) IHC stained of si‐hSMAC‐ or si‐NT‐TTs sections for SMAC (D), Ki‐67 (E), and their quantitative analysis (F) (n = 6 mice/group). […]
# A549 cell xenograft [2] = assay: A549 lung cancer xenograft tumour growth; format: in vivo, athymic nude mice; settings: relative to si‐NT‐treated tumours, nude mice, n = 8 mice/group
# Experimental: Male Hsd:Athymic ' Nude‐Foxn1nu mice (6–8 weeks old) were obtained from Envigo and were kept in the university animal facility in temperature‐controlled rooms and provided with water and food pellets ad libitum. All procedures involving mice were approved by the Ben‐Gurion Institutional Animal Care and Use Committee.
# Lung cancer A549 (3 × 10 ^6 ) cells were implanted subcutaneously on the dorsal flanks. Tumour growth was recorded using digital calibre, and volumes were calculated using, volume = X^2 × Y/2, where X and Y are the short and long tumour dimensions, respectively. Mice were divided randomly into three groups once the average tumour volume reached ˜ 80 mm^3 and were treated subcutaneously with si‐NT or si‐hSMAC‐A mixed with JetPEI reagent (350 or 700 nM final concentration) three times a week. Mice were sacrificed at the end of experiment, and the tumours were excised and processed for immunohistochemistry (IHC) or frozen in liquid nitrogen for immunoblotting and RNA isolation.
# (§1) Results are presented as the mean tumour volume ± SEM. […] Results are the means ± SEM.
# phospholipid levels = assay: Total PL, PC and PE levels in treated tumours; format: in vivo; settings: si‐hSMAC‐A‐TTs relative to si‐NT‐TTs, n = 6 mice per group
# Experimental: Total lipids were extracted from the SMAC‐KO and wild‐type A549/HEK 293T cells by the Folch method. Briefly, a cell suspension (2 × 10^7 cells/mL) was made in CHCl3/MeOH (2 : 1, v/v) sonicated for 30 s. Water (116 μL·mL^−1) was added to the suspension and shaken for 2 h at room temperature at 300 r.p.m. The aqueous suspension was heated for 10 min at 60 °C and stored at 4 °C for 3 h. Undissolved material was filtered through a 0.45‐μm syringe filter. Solvent was evaporated under nitrogen, and residues were re‐dissolved in CHCl3/MeOH for lipid analysis.
# Total phospholipid content of the cells was determined calorimetrically at 488 nm based on the formation of a complex between the PLs and ammonium ferrothiocyanate. PC level was also determined by calorimetric analysis at 316 nm using ammonium thiocyanatocobaltate reagent, as described previously.
# PE content in the lipid samples was measured as described previously. Briefly, solvent was evaporated from the lipid samples under nitrogen gas, and samples were resuspended in 0.8 mM Triton X‐100. Sample aliquots were added to 96‐well plates containing (50 µL) reaction mixture (80 mM NaCl, 2 mM K2HPO4, pH 7.4) and of borate buffer (12.5 µL) (100 mM boric acid, 75 mM NaCl, 25 mM sodium tetraborate, pH 9). After mixing, 12.5 µL of 100 µM DSB‐3, in 10 mM K2HPO4 (pH 7.4), was then added and incubated for 2 h in the dark with shaking (100 r.p.m.). Fluorescence was measured using excitation λex = 403 nm and emission λem = 508 nm. A calibration curve was obtained using PE (Biovision) as a standard.
# as §1
# [3] = tested on: VDAC1‐IP3R close association (MAM); assay: In‐situ proximity ligation assay VDAC1‐IP3R (MAM) in tumour sections; format: in vivo; settings: si‐hSMAC‐A‐TTs sections relative to si‐NT‐TTs
# Experimental: PLA was conducted as previously described using an in␣situ detection reagent red kit (DuoLink InSitu PLA Probe kit; Sigma‐Aldrich) according to the manufacturer’s protocol. VDAC1‐IP3R and SMAC‐PSD were analysed using PLA [24]. Briefly, for tumour section, formalin‐fixed and paraffin‐embedded tumour sections (5‐μm thick) were deparaffinized and then permeabilized using 0.3% Triton X‐100 in PBS for 30 min, followed by blocking with Duolink® Blocking Solution for 1 h. Sections were incubated overnight with anti‐VDAC1 (rabbit 1 : 750) and anti‐IP3R (mouse, 1 : 750), washed twice with TBS‐Tween (0.01%) and then incubated for 1 h with the secondary anti‐mouse and anti‐rabbit antibodies (PLA probe MINUS and PLUS) that were conjugated to complementary oligonucleotide extensions, and ligation and amplification steps were performed per manufacturer’s instructions, and Texas red‐labelled oligonucleotide probes were detected.
# Fig. 3 Subcellular morphological alterations including ER‐mitochondria contact sites, as induced by reduction of SMAC levels. […] (C) and subjected to quantitative analysis (n = 5) (D). […] Images at high magnification (Ea,b) (scale bars represent 20, 5 µm as indicated) and ligation product quantification (F) are also shown.
# SMAC/Diablo = assay: SMAC expression in treated tumours (immunoblot, IHC); format: in vivo, human; settings: si‐hSMAC‐A‐TTs versus si‐NT‐TTs, n = 6 mice/group
# Experimental: Cells were harvested and washed twice with ice‐cold PBS, and the pellets were lysed on ice for 30 min in a lysis buffer (50 mM Tris/HCl, pH 7.5, 150 mM NaCl, 1 mM EDTA, 1.5 mM MgCl2, 10% glycerol, 1% Triton X‐100), freshly supplemented with a protease inhibitor cocktail (Calbiochem) and centrifuged (10 min, 12 000 g ). The protein concentration of the supernatant was determined, and cells were stored at −80 °C until used for gel electrophoresis and immunoblotting. Protein samples (10–20 μg) were subjected to SDS‐PAGE and immunoblotting, using the selected primary antibodies, followed by incubation with HRP‐conjugated secondary antibodies. HRP activity was determined using EZ‐ECL (Biological Industries). Band intensity was quantified using FUSION‐FX (Vilber Lourmat, Collégien, France).
# as §1
# A549 cell xenograft [4] = assay: TUNEL staining of treated tumours; format: in vivo, athymic nude mice; settings: si‐hSMAC‐A‐TTs, data not shown
# [5] = target: T2, Purified recombinant protein (full …); assay: MST; SMAC fluorescently labelled (NanoTemper BLUE kit), 1 µM, incubated with purified PSD (78–625 nM) for 30 min at 37 °C; 10 mM Tris buffer, pH 7.4; Monolith NT.115, LED 20%, IR laser 20%; settings: both partners purified
molecule,measurement,setting,value
FQQLTCVLPI LDNLLKANVINKQEH [1E14],effect of PSD preincubation on SMAC binding to the peptide spot,purified SMAC,prevented SMAC interaction
DVDKLREQLS TSENALTGRILDLKT [2J14],effect of PSD preincubation on SMAC binding to the peptide spot,purified SMAC,prevented SMAC interaction
ALLTSGTSDPRARVTYGTPSLWRL [1C11],Kd,purified PSD,3 µM
[dR][Dmt][Orn]F-NH2 [mtCPP‐1],toxicity,different cell lines; different cell lines,no toxicity
same,induction of apoptosis,different cell lines,did not induce apoptosis
Distyrylbenzene‐bis‐aldehyde [DSB‐3],cell death,[1],no cell death
PNQSSRAFQGT DHSSDLAFDFLSQQ [2I8],effect of PSD preincubation on SMAC binding to the peptide spot,purified SMAC,prevented SMAC interaction
"si‐hSMAC‐A: Human SMAC/Diablo‐specific siRNA, sense 5′AAGCGGUGUUUCUCAGAATTGtt3′, antisense 5′AACAAUUCUGAGAAACCCG Ctt3′ (sense AAGCGGUGUUUCUCAGAATTGTT; antisense AACAAUUCUGAGAAACCCGCTT; chemistry not given here)","expression of Ki‐67, cell proliferation marker",Ki‐67,highly reduced
same,tumour volume reduced,A549 cell xenograft [2]; si‐hSMAC‐A 350 nM,50%
same,tumour volume reduced,A549 cell xenograft [2]; si‐hSMAC‐A 700 nM,85%
same,levels of PE increased,phospholipid levels; DSB‐3 probe,200%
same,levels of PC decreased,phospholipid levels,65%
same,levels of PLs decreased,phospholipid levels,50%
same,PLA signal VDAC1‐IP3R,[3],over fourfold
same,SMAC/Diablo level decreased,SMAC/Diablo,75%
same,"cell death, TUNEL staining",A549 cell xenograft [4],No cell death was detected
ALSTSSPIPSVPQSQAQPQTGSGAS [2F3],Kd,purified PSD,3 µM
"Human recombinant SMAC (SMAC/Diablo, second mitochondria‐derived activator of caspase/direct inhibitor of apoptosis‐binding protein with low pI) (natural protein, fluorescently labelled with the NanoTemper Protein labelling kit BLUE (in the MST with PSD only)) AVPIAQKSEPHSLSSEALMRRAVSLVTDSTSTFLSQTTYALIEAITEYTKAVYTLTSLYRQYTSLLGKMNSEEEDEVWQVIIGARAEMTSKHQEYLKLETTWMTAVGLSEMAAEAAYQTGADQASITARNHIQLVKLQVEEVHQLSRKAETKLAEAQIEELRQKTQEEGEERAESEQEAYLRED",Kd,[5],0.246 µM
